Experimental data: patent publication US12064577B2, “Drug-coated balloon” (Intersect ENT, Inc., priority 2015, dated 2024)
Like-named read-outs stand apart in the source and are kept apart here.

How the values were obtained:
[1] = Drug uptake into sinus tissue after drug coated balloon delivery, ovine model (HPLC of tissue samples); format: in vivo; details: other: drug coated balloon expanded in the maxillary sinus, sheep, Example 3 balloon (solvent vapor annealed coating) expanded 5 minutes in maxillary sinus, tissue sampled after 7 days
Experimental: (§1) A 30 mm 80A Pellethane® compliant balloon was cleaned with 70% isopropanol and dried in an oven. The balloon was then treated with oxygen plasma and immediately spray coated with a mometasone furoate formulation listed in Table 1. Post-spray pass drying was conducted with nitrogen gas. Next, the drug coated balloon was treated by solvent vapor annealing (i.e., exposed to a solvent vapor) in a sealed chamber saturated with ethanol for four hours at room temperature. After solvent vapor annealing, the balloon was re-folded and heat set using a custom pleating machine. The coated balloon was then sheathed and packaged under nitrogen gas and sterilized by electron beam irradiation.
(§2) A drug coated balloon made using the process described in Example 3 was advanced to a sheep maxillary sinus using a rigid 4 mm endoscope and expanded for 5 minutes, and then deflated and removed from the nostril. After 7 days the animal was sacrificed and tissue samples obtained from the maxillary sinus and surrounding tissues. […] Plasma concentration of mometasone furoate was also measured over 7 days. Referring to Table 3 below and FIG. 3, mometasone furoate (MF) plasma concentration was low and found to decrease over the 7 day period from an initially low value. […] Low systemic exposure generally lowers the risk of a patient experiencing side effects from the delivered drug.

[2] = Plasma concentration of mometasone furoate after drug coated balloon delivery to ovine maxillary sinus; format: in vivo; details: other: drug coated balloon expanded in the maxillary sinus, sheep, read-out: MF Plasma Concentration
Experimental: as §1, §2

- concentration at 7 days ([1]; read-out: mometasone furoate concentration in maxillary sinus tissue): 146 ng/g
- concentration at 7 days ([1]; tissues surrounding the maxillary sinus, read-out: mometasone furoate concentration in tissues surrounding the maxillary sinus): 55 ng/g
- concentration at 0 day ([2]; day 0 after Example 3 balloon delivery to maxillary sinus): 0.3 ng/mL
- concentration at 1 day ([2]; day 1 after Example 3 balloon delivery to maxillary sinus): 0.3 ng/mL
- concentration at 4 day ([2]; day 4 after Example 3 balloon delivery to maxillary sinus): 0.05 ng/mL
- concentration at 7 day ([2]; day 7 after Example 3 balloon delivery to maxillary sinus): < 0.01 ng/mL
SMILES: C[C@@H]1C[C@H]2[C@@H]3CCC4=CC(=O)C=C[C@]4(C)[C@@]3(Cl)[C@@H](O)C[C@]2(C)[C@@]1(OC(=O)c1ccco1)C(=O)CCl [mometasone furoate]
